Values quoted from earlier work in patent US20040241049A1, “Elastomeric tools for the fabrication of elastomeric devices and uses thereof” (priority 2003, published 2004).

Tested on: α1-acid glycoprotein, αAGP
Settings: displacement of quinaldine red from αAGP; stated as known

| inhibition of QR/αAGP binding (binder / non-binder) | SMILES |
| --- | --- |
| known inhibitors to QR/αAGP binding | CN(C)CCCN1c2ccccc2Sc2ccc(Cl)cc21 [chloropromazine] |
| non-binder | CC(C)Cc1ccc(C(C)C(=O)O)cc1 (stereo not drawn) [ibuprofen] |

| SMILES | inhibition of QR/αAGP binding (binder / non-binder) |
| --- | --- |
| O=C(O)c1cc(I)cc(I)c1I [tri-idiobenzoic acid] | known inhibitors to QR/αAGP binding |
